Measured values: ChEMBL document CHEMBL3421538, “Structure-activity relationships and molecular studies of novel arylpiperazinylalkyl purine-2,4-diones and purine-2,4,8-triones with antidepressant and anxiolytic-like activity” (Eur J Med Chem, 2015)
The source made the active and inactive calls. The calls are words filed in the database; no cut-off is given here.

Assays:
[1] = target: T1, 5-hydroxytryptamine receptor 7 (Homo sapiens, UniProt P34969); assay: Displacement of [3H]LSD from human recombinant 5-HT7 receptor expressed in CHOK1 cells incubated for 60 mins by microbeta plate reader based method; format: cell-based, CHO-K1
T1 sequence (P34969 whole entry): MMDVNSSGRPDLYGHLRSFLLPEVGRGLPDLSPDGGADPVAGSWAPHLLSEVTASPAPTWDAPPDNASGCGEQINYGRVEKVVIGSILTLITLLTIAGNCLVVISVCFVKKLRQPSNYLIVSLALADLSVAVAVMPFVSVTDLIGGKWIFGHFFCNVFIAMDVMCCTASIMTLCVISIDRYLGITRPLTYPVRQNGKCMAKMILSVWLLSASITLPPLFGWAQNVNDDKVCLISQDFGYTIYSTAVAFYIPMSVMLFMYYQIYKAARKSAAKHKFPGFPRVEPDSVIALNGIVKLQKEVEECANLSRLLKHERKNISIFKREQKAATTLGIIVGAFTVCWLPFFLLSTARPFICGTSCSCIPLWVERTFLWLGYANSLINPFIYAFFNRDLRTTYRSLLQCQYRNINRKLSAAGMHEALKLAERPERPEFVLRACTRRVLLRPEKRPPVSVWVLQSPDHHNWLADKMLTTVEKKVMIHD

D(2) dopamine receptor [2] = target: T2, D(2) dopamine receptor (Homo sapiens, UniProt P14416); assay: Displacement of [3H]N-methylspiperone from human recombinant dopamine D2 receptor expressed in CHOK1 cells incubated for 60 mins by microbeta plate reader based method; format: cell-based, CHO-K1
T2 sequence (P14416 whole entry): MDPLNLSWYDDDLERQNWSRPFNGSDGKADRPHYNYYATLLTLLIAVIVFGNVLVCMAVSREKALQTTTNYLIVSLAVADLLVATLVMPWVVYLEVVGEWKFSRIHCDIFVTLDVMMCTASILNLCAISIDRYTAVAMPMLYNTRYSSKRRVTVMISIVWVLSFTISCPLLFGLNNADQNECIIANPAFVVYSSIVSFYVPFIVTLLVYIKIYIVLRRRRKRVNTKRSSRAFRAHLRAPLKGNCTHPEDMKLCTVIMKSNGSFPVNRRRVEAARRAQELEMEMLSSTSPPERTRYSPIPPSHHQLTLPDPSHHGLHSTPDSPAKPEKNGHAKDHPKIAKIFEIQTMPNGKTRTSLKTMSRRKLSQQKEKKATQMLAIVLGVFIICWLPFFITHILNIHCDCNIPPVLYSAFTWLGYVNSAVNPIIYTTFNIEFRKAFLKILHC

[3] = Selectivity index, ratio of Ki for rat hippocampus 5-HT1A receptor to Ki for human recombinant 5-HT7 receptor
[4] = target: T3, 5-hydroxytryptamine receptor 1A (Homo sapiens) (UniProt P08908); assay: Agonist activity at human 5-HT1A receptor expressed in HEK293 cells assessed as stimulation of cAMP levels at 1 uM relative to 8-OH-DPAT; format: functional, cell-based
T3 sequence (whole entry): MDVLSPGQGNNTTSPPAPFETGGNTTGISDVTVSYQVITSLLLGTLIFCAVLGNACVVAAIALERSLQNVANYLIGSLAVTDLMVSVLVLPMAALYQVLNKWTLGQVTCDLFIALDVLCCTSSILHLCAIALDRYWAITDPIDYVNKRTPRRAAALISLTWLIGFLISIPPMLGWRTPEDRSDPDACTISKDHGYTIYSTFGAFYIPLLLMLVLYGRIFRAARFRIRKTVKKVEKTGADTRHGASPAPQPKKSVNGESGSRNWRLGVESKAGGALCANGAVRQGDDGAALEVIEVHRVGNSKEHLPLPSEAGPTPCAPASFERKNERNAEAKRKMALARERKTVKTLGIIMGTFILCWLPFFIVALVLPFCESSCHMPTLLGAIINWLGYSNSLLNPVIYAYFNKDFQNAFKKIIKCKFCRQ

[5] = target: T3, 5-hydroxytryptamine receptor 1A (Homo sapiens); assay: Agonist activity at human 5-HT1A receptor expressed in HEK293 cells assessed as stimulation of cAMP levels at 0.1 uM relative to 8-OH-DPAT; format: functional, cell-based
[6] = target: T1, 5-hydroxytryptamine receptor 7; assay: Agonist activity at human 5-HT7 receptor expressed in HEK293 cells assessed as stimulation of cAMP levels at 1 uM relative to 5HT; format: functional, cell-based
[7] = target: T1, 5-hydroxytryptamine receptor 7; assay: Agonist activity at human 5-HT7 receptor expressed in HEK293 cells assessed as stimulation of cAMP levels at 0.1 uM relative to 5HT; format: functional, cell-based
D(2) dopamine receptor [8] = target: T2, D(2) dopamine receptor; assay: Agonist activity at human D2L receptor expressed in HEK293 cells assessed as stimulation of cAMP levels at 1 uM relative to dopamine; format: functional, cell-based
D(2) dopamine receptor [9] = target: T2, D(2) dopamine receptor; assay: Agonist activity at human D2L receptor expressed in HEK293 cells assessed as stimulation of cAMP levels at 0.1 uM relative to dopamine; format: functional, cell-based
[10] = target: T3, 5-hydroxytryptamine receptor 1A (Homo sapiens); assay: Antagonist activity against human 5-HT1A receptor expressed in HEK293 cells assessed as inhibition of […]-induced cAMP levels at 1 uM; format: functional, cell-based
[11] = target: T3, 5-hydroxytryptamine receptor 1A (Homo sapiens); assay: Antagonist activity against human 5-HT1A receptor expressed in HEK293 cells assessed as inhibition of […]-induced cAMP levels at 0.1 uM; format: functional, cell-based
[12] = target: T1, 5-hydroxytryptamine receptor 7; assay: Antagonist activity against human 5-HT7 receptor expressed in HEK293 cells assessed as inhibition of 5-HT-induced cAMP levels at 1 uM; format: functional, cell-based
[13] = target: T1, 5-hydroxytryptamine receptor 7; assay: Antagonist activity against human 5-HT7 receptor expressed in HEK293 cells assessed as inhibition of 5-HT-induced cAMP levels at 0.1 uM; format: functional, cell-based
D(2) dopamine receptor [14] = target: T2, D(2) dopamine receptor; assay: Antagonist activity against human dopamine D2L receptor expressed in HEK293 cells assessed as inhibition of […]-induced cAMP levels at 1 uM; format: functional, cell-based
D(2) dopamine receptor [15] = target: T2, D(2) dopamine receptor; assay: Antagonist activity against human dopamine D2L receptor expressed in HEK293 cells assessed as inhibition of […]-induced cAMP levels at 0.1 uM; format: functional, cell-based
Mus musculus [16] = assay: Antidepressant-like activity in Swiss mouse assessed as reduction in immobility time at 1.25 to 5 mg/kg, ip administered 60 mins before test; format: functional, organism-based
Mus musculus [17] = assay: Anxiolytic-like activity in Swiss mouse assessed as increase in number of punished crossings measured during 60 seconds period at 5 mg/kg, ip by four-plate test; format: functional; conditions: route intraperitoneal
Mus musculus [18] = assay: Anxiolytic-like activity in Swiss mouse assessed as increase in number of punished crossings measured during 60 seconds period at 2.5 to 10 mg/kg, ip by four-plate test; format: functional, organism-based
Mus musculus [19] = assay: Toxicity in Swiss mouse assessed as spontaneous locomotor activity at 2.5 to 10 mg/kg, ip; format: organism-based; set-up: dose 2.5-10 mg/kg, route intraperitoneal; conditions: in vivo
[20] = target: T4, 5-hydroxytryptamine receptor 1A (Rattus norvegicus) (UniProt P19327); assay: Displacement of [3H]8-OH-DPAT from rat hippocampus 5-HT1A receptor assessed as total radioligand binding at 1 uM incubated for 20 mins by microbeta plate reader based method
T4 sequence (whole entry): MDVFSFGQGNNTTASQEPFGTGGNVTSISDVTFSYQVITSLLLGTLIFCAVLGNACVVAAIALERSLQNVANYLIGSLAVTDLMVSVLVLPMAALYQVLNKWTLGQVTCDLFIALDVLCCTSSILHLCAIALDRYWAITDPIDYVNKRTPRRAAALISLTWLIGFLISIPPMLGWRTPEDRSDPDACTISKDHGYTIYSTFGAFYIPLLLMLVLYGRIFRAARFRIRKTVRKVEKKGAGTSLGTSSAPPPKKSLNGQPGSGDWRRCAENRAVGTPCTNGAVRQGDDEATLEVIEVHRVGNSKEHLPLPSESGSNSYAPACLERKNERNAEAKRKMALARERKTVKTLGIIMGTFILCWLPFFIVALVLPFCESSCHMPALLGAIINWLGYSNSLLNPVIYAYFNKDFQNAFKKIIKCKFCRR

[21] = target: T4, 5-hydroxytryptamine receptor 1A (Rattus norvegicus); assay: Displacement of [3H]8-OH-DPAT from rat hippocampus 5-HT1A receptor assessed as total radioligand binding at 1.66 x 10^-7 M incubated for 20 mins by microbeta plate reader based method
[22] = target: T5, 5-hydroxytryptamine receptor 6 (Homo sapiens, UniProt P50406); assay: Displacement of [3H]LSD from human recombinant 5-HT6 receptor expressed in HEK293 cells assessed as total radioligand binding at 1 uM incubated for 60 mins by microbeta plate reader based method; format: cell-based
T5 sequence (P50406 whole entry): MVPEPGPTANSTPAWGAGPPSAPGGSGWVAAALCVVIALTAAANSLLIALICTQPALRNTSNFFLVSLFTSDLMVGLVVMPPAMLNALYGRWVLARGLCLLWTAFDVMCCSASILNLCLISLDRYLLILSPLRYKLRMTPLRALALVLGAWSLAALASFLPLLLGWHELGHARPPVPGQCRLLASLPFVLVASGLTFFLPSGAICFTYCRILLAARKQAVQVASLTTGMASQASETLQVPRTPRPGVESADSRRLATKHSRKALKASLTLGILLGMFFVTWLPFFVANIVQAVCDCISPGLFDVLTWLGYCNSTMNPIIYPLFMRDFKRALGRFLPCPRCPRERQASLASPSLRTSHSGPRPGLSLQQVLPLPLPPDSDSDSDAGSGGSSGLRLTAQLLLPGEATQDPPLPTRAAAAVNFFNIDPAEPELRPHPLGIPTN

[23] = target: T5, 5-hydroxytryptamine receptor 6; assay: Displacement of [3H]LSD from human recombinant 5-HT6 receptor expressed in HEK293 cells assessed as total radioligand binding at 1.66 x 10^-7 M incubated for 60 mins by microbeta plate reader based method; format: cell-based
[24] = target: D(3) dopamine receptor (Homo sapiens) (UniProt P35462); assay: Displacement of [3H]N-methylspiperone from dopamine D3 receptor (unknown origin) assessed as total radioligand binding at 1 uM incubated for 60 mins by microbeta plate reader based method
Sequence of D(3) dopamine receptor (Homo sapiens) (P35462 whole entry): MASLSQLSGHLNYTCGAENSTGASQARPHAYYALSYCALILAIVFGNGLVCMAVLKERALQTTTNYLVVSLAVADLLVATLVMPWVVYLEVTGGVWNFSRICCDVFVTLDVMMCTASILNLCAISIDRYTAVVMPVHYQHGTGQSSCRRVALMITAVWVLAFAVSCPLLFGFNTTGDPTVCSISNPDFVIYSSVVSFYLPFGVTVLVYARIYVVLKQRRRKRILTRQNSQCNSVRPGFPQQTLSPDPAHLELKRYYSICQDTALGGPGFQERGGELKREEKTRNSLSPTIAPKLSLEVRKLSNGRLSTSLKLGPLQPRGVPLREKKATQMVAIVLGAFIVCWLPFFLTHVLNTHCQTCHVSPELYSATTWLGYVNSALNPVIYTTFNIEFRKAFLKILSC

[25] = target: D(3) dopamine receptor (Homo sapiens) (UniProt P35462); assay: Displacement of [3H]N-methylspiperone from dopamine D3 receptor (unknown origin) assessed as total radioligand binding at 1.66 x 10^-7 M incubated for 60 mins by microbeta plate reader based method
[26] = target: T6, 5-hydroxytryptamine receptor 1A (Rattus norvegicus, UniProt P19327); assay: Displacement of [3H]8-OH-DPAT from rat hippocampus 5-HT1A receptor incubated for 20 mins by microbeta plate reader based method
T6 sequence (P19327 whole entry): T4 sequence (whole entry)

[27] = target: T5, 5-hydroxytryptamine receptor 6; assay: Displacement of [3H]LSD from human recombinant 5-HT6 receptor expressed in HEK293 cells incubated for 60 mins by microbeta plate reader based method; format: cell-based
Mus musculus [28] = assay: Antidepressant-like activity in Swiss mouse assessed as reduction in immobility time at 2.5 to 10 mg/kg, ip administered 60 mins before test; format: functional, organism-based
Mus musculus [29] = assay: Antidepressant-like activity in Swiss mouse assessed as reduction in immobility time at 5 mg/kg, ip administered 60 mins before test; format: functional; set-up: scale not given: the % may be the effect or the level left; conditions: route intraperitoneal
Mus musculus [30] = assay: Toxicity in Swiss mouse assessed as spontaneous locomotor activity at 2.5 to 10 mg/kg, ip measured during 2 to 6 mins; format: organism-based; set-up: route intraperitoneal; conditions: in vivo
Mus musculus [31] = assay: Anxiolytic-like activity in Swiss mouse assessed as increase in number of punished crossings measured during 60 seconds period at 25 mg/kg, ip by four-plate test; format: functional; conditions: route intraperitoneal
Mus musculus [32] = assay: Antidepressant-like activity in Swiss mouse assessed as reduction in immobility time at 2.5 to 20 mg/kg, ip administered 60 mins before test; format: functional, organism-based
Mus musculus [33] = assay: Antidepressant-like activity in Swiss mouse assessed as reduction in immobility time at 10 mg/kg, ip administered 60 mins before test; format: functional; set-up: scale not given: the % may be the effect or the level left; conditions: route intraperitoneal
Mus musculus [34] = assay: Toxicity in Swiss mouse assessed as spontaneous locomotor activity at 2.5 to 20 mg/kg, ip measured during 2 to 6 mins; format: organism-based; set-up: route intraperitoneal; conditions: in vivo
Mus musculus [35] = assay: Anxiolytic-like activity in Swiss mouse assessed as increase in number of punished crossings measured during 60 seconds period at 5 to 20 mg/kg, ip by four-plate test; format: functional, organism-based

Ki [1] | Ki (D(2) dopamine receptor [2]) | Ratio Ki [3] | Activity [4] | Activity [5] | Activity [6] | Activity [7] | Activity (D(2) dopamine receptor [8]) | Activity (D(2) dopamine receptor [9]) | inhibition [10] | inhibition [11] | inhibition [12] | inhibition [13] | inhibition (D(2) dopamine receptor [14]) | inhibition (D(2) dopamine receptor [15]) | Activity [20] | Activity [21] | Ki [26] | Structure (SMILES) | Activity (Mus musculus [18]) | Activity (Mus musculus [19]) | further results
43 nM | 24 nM | 0.2 | 32.5% | 22.9% | 5.3% | 5.1% | 7.7% | 12.3% | 91.8% | 68.3% | 58.9% | 11% | 71.2% | 12.2% | 9% | 47% | 9 nM | Cn1c(=O)c2c(nc3n(CCCCCN4CCN(c5ccccc5O)CC4)c(-c4ccccc4)cn23)n(C)c1=O | Active | Non-toxic | Activity (Mus musculus [16]): inactive; Activity (Mus musculus [17]): 90%; Activity [22]: 60%; Activity [23]: 87%; Activity [24]: 39%; Activity [25]: 81%
111 nM | 59 nM | 0.19 | 18.7% | 2.3% |  |  | 10% | 0.8% | 87.6% | 92.9% |  |  | 55.9% | 20.9% |  |  | 22 nM | Cc1cn2c3c(=O)n(C)c(=O)n(C)c3nc2n1CCCCCN1CCN(c2ccc(Cl)c(Cl)c2)CC1 | Active | Non-toxic | Ki [27]: 405 nM; Activity (Mus musculus [28]): Active; Activity (Mus musculus [29]): 25%; Activity (Mus musculus [30]): Non-toxic; Activity (Mus musculus [31]): 124%
30 nM | 4 nM | 0.2 | 37.4% | 23.4% | -2.2% | 4.5% | 28% | 19.2% | 104% | 82.4% | 64.3% | 7.7% | 77.8% | 45% | 7% | 42% | 6 nM | Cn1c(=O)c2c(nc3n(CCCCN4CCN(c5ccccc5O)CC4)c(-c4ccccc4)cn23)n(C)c1=O |  |  | Activity (Mus musculus [32]): Active; Activity (Mus musculus [33]): 17%; Activity (Mus musculus [34]): Non-toxic; Activity (Mus musculus [35]): inactive; Activity [22]: 37%; Activity [23]: 69%; Activity [24]: 39%; Activity [25]: 81%
